ChEMBL document CHEMBL4507269, “Data for DCP probe BAY-386” (2021)

Legend:
[1] = target: Serine/threonine-protein kinase 32A (Homo sapiens) (UniProt Q8WU08); conditions: Compound concentration 1000.0 nM
[2] = target: Serine/threonine-protein kinase 36 (Homo sapiens) (UniProt Q9NRP7); conditions: Compound concentration 1000.0 nM
[3] = target: Activin receptor type-2B (Homo sapiens) (UniProt Q13705); conditions: Compound concentration 1000.0 nM
[4] = target: Serine/threonine-protein kinase PRP4 homolog (Homo sapiens) (UniProt Q13523); conditions: Compound concentration 1000.0 nM
[5] = target: Dual specificity tyrosine-phosphorylation-regulated kinase 1A (Homo sapiens) (UniProt Q13627); conditions: Compound concentration 1000.0 nM
[6] = target: Serine/threonine-protein kinase D1 (Homo sapiens) (UniProt Q15139); conditions: Compound concentration 1000.0 nM
[7] = target: Serine/threonine-protein kinase ULK1 (Homo sapiens) (UniProt O75385); conditions: Compound concentration 1000.0 nM
[8] = target: Phosphatidylinositol 4-phosphate 5-kinase type-1 gamma (Homo sapiens) (UniProt O60331); conditions: Compound concentration 1000.0 nM
[9] = target: Ribosomal protein S6 kinase alpha-4 (Homo sapiens) (UniProt O75676); conditions: Compound concentration 1000.0 nM
[10] = target: 5-hydroxytryptamine receptor 6 (Homo sapiens) (UniProt P50406); conditions: Compound concentration 10.0 uM
[11] = target: Casein kinase I isoform gamma-3 (Homo sapiens) (UniProt Q9Y6M4); conditions: Compound concentration 1000.0 nM
[12] = target: Tyrosine-protein kinase Fes/Fps (Homo sapiens) (UniProt P07332); conditions: Compound concentration 1000.0 nM
[13] = target: Ribosomal protein S6 kinase alpha-1 (Homo sapiens) (UniProt Q15418); conditions: Compound concentration 1000.0 nM
[14] = target: Receptor-interacting serine/threonine-protein kinase 4 (Homo sapiens) (UniProt P57078); conditions: Compound concentration 1000.0 nM
[15] = target: Mitogen-activated protein kinase kinase kinase 13 (Homo sapiens) (UniProt O43283); conditions: Compound concentration 1000.0 nM
[16] = target: Ephrin type-B receptor 6 (Homo sapiens) (UniProt O15197); conditions: Compound concentration 1000.0 nM
[17] = target: Rhodopsin kinase GRK1 (Homo sapiens) (UniProt Q15835); conditions: Compound concentration 1000.0 nM
[18] = target: Interferon-induced, double-stranded RNA-activated protein kinase (Homo sapiens) (UniProt P19525); conditions: Compound concentration 1000.0 nM
[19] = target: Ribosomal protein S6 kinase alpha-6 (Homo sapiens) (UniProt Q9UK32); conditions: Compound concentration 1000.0 nM
[20] = target: Mitogen-activated protein kinase kinase kinase 5 (Homo sapiens) (UniProt Q99683); conditions: Compound concentration 1000.0 nM
[21] = target: Serine/threonine-protein kinase pim-3 (Homo sapiens) (UniProt Q86V86); conditions: Compound concentration 1000.0 nM
[22] = target: Casein kinase I isoform epsilon (Homo sapiens) (UniProt P49674); conditions: Compound concentration 1000.0 nM
[23] = target: Serine/threonine-protein kinase LATS1 (Homo sapiens) (UniProt O95835); conditions: Compound concentration 1000.0 nM
[24] = target: Serine/threonine-protein kinase Nek11 (Homo sapiens) (UniProt Q8NG66); conditions: Compound concentration 1000.0 nM
[25] = target: Glycogen synthase kinase-3 beta (Homo sapiens) (UniProt P49841); conditions: Compound concentration 1000.0 nM
[26] = target: Mitogen-activated protein kinase 3 (Homo sapiens) (UniProt P27361); conditions: Compound concentration 1000.0 nM
[27] = target: Cyclin-dependent kinase-like 3 (Homo sapiens) (UniProt Q8IVW4); conditions: Compound concentration 1000.0 nM
[28] = target: SNF-related serine/threonine-protein kinase (Homo sapiens) (UniProt Q9NRH2); conditions: Compound concentration 1000.0 nM
[29] = target: Serine/threonine-protein kinase MARK1 (Homo sapiens) (UniProt Q9P0L2); conditions: Compound concentration 1000.0 nM
[30] = target: RAF proto-oncogene serine/threonine-protein kinase (Homo sapiens) (UniProt P04049); conditions: Compound concentration 1000.0 nM
[31] = target: Receptor-type tyrosine-protein kinase FLT3 (Homo sapiens) (UniProt P36888); conditions: Compound concentration 1000.0 nM
[32] = target: Insulin-like growth factor 1 receptor (Homo sapiens) (UniProt P08069); conditions: Compound concentration 1000.0 nM
[33] = target: Tyrosine-protein kinase receptor Tie-1 (Homo sapiens) (UniProt P35590); conditions: Compound concentration 1000.0 nM
[34] = target: Mitogen-activated protein kinase kinase kinase 4 (Homo sapiens) (UniProt Q9Y6R4); conditions: Compound concentration 1000.0 nM
[35] = target: Bone morphogenetic protein receptor type-1A (Homo sapiens) (UniProt P36894); conditions: Compound concentration 1000.0 nM
[36] = target: Serine/threonine-protein kinase Sgk2 (Homo sapiens) (UniProt Q9HBY8); conditions: Compound concentration 1000.0 nM
[37] = target: Calcium/calmodulin-dependent protein kinase type II subunit alpha (Homo sapiens) (UniProt Q9UQM7); conditions: Compound concentration 1000.0 nM
[38] = target: T1, D(4) dopamine receptor (Homo sapiens) (UniProt P21917); conditions: Compound concentration 10.0 uM
T1 sequence (whole entry): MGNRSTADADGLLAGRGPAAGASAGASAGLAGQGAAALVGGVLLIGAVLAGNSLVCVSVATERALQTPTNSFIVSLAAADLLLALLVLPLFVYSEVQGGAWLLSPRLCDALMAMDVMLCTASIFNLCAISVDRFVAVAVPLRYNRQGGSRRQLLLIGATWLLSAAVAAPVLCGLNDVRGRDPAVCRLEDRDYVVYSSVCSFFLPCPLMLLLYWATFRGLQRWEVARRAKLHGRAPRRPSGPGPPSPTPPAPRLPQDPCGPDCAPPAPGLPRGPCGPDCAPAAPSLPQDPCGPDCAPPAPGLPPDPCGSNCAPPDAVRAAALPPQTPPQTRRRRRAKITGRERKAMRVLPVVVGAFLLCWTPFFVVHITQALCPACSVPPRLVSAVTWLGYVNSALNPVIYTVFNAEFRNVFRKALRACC

[39] = target: Cyclin-dependent kinase 15 (Homo sapiens) (UniProt Q96Q40); conditions: Compound concentration 1000.0 nM
Cyclin-dependent kinase 15 (Homo sapiens), sequence (Q96Q40 whole entry): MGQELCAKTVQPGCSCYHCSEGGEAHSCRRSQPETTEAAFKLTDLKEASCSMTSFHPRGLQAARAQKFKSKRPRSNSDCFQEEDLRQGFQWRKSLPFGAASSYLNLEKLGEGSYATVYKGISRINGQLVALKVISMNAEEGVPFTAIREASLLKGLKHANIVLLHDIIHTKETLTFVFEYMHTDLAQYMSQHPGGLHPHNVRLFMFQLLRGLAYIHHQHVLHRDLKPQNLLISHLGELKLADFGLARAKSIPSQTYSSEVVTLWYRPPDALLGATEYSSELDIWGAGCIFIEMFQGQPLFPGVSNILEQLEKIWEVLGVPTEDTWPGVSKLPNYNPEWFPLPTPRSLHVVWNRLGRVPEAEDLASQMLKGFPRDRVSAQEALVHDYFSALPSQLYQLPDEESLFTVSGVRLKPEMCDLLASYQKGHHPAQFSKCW

Insulin-like growth factor 1 receptor (Homo sapiens), sequence (P08069 31-736 limits assumed): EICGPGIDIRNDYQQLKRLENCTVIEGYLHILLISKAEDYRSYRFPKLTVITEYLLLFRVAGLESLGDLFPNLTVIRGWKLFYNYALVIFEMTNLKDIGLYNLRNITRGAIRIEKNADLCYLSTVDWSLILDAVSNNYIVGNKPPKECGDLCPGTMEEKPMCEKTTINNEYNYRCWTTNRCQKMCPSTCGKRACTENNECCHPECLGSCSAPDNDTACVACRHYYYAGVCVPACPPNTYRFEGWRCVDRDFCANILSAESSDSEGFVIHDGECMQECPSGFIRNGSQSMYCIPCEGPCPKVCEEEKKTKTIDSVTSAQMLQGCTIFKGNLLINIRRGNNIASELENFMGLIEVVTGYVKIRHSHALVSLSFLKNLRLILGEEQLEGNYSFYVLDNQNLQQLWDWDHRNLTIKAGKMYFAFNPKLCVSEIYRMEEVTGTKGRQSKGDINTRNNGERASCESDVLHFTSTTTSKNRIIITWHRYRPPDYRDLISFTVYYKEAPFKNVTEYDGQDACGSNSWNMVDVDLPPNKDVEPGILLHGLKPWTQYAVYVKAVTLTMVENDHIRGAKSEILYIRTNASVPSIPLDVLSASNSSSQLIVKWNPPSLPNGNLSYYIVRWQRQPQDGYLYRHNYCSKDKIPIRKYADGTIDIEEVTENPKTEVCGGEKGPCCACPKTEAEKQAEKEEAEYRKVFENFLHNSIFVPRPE
Insulin-like growth factor 1 receptor (Homo sapiens), sequence (P08069 741-1367 limits assumed): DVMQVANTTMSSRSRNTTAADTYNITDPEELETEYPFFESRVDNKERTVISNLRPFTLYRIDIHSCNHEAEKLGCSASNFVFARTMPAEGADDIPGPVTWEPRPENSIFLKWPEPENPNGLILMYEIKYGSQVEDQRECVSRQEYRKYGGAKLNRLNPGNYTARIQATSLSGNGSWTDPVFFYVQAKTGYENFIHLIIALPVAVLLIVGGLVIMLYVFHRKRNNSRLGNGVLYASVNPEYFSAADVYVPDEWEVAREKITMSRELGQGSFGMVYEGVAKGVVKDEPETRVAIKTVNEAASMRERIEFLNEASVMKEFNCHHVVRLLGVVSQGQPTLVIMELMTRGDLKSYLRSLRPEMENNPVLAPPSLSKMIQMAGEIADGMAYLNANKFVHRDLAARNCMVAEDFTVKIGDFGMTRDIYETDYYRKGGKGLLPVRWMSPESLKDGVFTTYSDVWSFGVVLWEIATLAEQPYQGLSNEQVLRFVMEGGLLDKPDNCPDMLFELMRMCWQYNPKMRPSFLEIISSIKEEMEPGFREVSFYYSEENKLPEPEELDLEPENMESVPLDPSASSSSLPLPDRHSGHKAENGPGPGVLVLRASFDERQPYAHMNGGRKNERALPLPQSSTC
Ephrin type-B receptor 6 (Homo sapiens), sequence (O15197 whole entry): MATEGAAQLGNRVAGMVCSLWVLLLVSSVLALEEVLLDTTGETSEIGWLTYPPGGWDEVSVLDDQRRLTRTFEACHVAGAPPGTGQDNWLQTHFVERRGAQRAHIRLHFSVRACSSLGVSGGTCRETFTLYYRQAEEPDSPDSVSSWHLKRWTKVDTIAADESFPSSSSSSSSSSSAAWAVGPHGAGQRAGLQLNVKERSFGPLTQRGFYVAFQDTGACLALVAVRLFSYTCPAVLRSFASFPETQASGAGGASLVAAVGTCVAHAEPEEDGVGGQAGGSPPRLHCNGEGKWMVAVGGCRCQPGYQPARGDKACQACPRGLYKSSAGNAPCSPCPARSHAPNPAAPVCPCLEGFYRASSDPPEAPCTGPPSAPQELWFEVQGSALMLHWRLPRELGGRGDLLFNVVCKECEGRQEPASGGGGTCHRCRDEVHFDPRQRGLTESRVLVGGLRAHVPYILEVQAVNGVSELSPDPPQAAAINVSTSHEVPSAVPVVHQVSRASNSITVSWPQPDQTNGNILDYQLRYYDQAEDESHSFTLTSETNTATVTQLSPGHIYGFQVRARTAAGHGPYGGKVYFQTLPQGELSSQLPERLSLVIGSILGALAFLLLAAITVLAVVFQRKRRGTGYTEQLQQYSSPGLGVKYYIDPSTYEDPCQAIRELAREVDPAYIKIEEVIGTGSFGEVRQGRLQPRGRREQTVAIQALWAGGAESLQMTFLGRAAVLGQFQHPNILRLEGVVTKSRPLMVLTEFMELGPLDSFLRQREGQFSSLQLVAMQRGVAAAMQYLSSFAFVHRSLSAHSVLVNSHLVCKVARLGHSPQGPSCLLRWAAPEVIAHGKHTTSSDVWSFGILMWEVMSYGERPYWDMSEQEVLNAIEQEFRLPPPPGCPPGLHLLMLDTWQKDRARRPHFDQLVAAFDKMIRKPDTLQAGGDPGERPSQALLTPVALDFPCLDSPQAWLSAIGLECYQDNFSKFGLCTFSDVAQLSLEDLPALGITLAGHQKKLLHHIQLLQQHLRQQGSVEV
Mitogen-activated protein kinase kinase kinase 13 (Homo sapiens), sequence (O43283 whole entry): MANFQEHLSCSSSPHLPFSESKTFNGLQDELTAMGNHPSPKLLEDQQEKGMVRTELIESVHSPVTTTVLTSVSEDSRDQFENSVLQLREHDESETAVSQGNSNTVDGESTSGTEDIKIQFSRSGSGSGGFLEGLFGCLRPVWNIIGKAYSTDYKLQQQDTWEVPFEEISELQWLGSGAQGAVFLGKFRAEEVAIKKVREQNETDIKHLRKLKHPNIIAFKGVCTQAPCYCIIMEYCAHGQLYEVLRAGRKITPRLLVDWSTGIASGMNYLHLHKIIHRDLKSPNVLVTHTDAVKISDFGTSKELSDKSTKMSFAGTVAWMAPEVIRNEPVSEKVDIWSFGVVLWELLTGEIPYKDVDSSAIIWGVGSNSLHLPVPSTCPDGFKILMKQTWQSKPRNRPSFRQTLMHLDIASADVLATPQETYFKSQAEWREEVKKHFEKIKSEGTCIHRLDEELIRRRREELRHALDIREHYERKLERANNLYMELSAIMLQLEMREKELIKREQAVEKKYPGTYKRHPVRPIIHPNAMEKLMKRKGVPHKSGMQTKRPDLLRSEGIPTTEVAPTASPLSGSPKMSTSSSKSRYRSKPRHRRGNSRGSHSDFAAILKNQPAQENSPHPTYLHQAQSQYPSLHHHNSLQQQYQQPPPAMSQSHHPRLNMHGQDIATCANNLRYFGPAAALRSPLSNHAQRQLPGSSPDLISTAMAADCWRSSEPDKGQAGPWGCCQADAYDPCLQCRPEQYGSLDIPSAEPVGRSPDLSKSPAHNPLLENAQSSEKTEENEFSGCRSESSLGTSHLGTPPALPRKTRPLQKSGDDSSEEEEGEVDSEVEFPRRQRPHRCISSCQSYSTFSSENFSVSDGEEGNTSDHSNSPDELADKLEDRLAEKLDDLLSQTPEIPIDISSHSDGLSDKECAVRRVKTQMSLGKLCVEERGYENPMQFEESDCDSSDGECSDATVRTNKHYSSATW
Calcium/calmodulin-dependent protein kinase type II subunit alpha (Homo sapiens), sequence (Q9UQM7 whole entry): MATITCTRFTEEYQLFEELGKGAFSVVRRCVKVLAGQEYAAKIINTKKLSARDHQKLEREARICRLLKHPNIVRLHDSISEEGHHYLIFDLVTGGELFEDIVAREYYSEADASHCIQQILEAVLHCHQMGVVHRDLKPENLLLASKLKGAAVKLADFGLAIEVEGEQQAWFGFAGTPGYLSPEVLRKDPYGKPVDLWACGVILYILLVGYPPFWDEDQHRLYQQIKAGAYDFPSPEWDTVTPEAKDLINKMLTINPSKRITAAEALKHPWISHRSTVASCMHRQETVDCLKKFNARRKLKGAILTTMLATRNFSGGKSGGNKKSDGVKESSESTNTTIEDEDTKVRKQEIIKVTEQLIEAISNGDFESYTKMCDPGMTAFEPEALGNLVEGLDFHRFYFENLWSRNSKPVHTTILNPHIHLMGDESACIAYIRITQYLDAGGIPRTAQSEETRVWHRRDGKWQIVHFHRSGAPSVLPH
5-hydroxytryptamine receptor 6 (Homo sapiens), sequence (P50406 whole entry, canonical isoform): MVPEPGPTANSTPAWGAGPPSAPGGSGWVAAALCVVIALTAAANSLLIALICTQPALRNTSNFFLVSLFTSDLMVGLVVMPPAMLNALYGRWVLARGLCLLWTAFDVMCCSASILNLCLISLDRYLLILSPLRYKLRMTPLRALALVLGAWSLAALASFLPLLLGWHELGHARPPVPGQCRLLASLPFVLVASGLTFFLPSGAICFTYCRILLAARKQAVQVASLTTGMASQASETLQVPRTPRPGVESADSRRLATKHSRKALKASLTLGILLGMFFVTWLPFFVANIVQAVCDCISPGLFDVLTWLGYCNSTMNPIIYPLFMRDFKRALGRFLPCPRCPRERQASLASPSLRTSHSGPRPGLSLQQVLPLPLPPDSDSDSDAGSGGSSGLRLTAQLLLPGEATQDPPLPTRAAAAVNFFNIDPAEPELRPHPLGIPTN
Serine/threonine-protein kinase Sgk2 (Homo sapiens), sequence (Q9HBY8 whole entry): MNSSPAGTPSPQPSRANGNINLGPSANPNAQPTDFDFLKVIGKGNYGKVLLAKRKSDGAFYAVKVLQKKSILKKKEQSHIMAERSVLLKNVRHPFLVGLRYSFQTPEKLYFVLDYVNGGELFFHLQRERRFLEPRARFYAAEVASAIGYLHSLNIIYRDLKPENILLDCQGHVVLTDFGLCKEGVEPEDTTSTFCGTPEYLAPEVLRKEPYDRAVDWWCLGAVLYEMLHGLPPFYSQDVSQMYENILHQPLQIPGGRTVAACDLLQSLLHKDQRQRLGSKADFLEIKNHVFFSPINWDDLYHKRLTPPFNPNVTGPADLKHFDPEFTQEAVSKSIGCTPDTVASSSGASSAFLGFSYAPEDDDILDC

O=C(N1CCS(=O)(=O)CC1)N1C[C@H](c2ccc(OC(F)(F)F)cc2)C[C@H](c2nc(C3CC3)no2)C1 [BAY-386]
inactive: residual activity [1] 89% | residual activity [2] 100% | residual activity [3] 86% | residual activity [4] 97% | residual activity [5] 100% | residual activity [6] 100% | residual activity [7] 100% | residual activity [8] 100% | residual activity [9] 82% | inhibition [10] 2.78% | residual activity [11] 100% | residual activity [12] 100% | residual activity [13] 100% | residual activity [14] 97% | residual activity [15] 98% | residual activity [16] 100% | residual activity [17] 92% | residual activity [18] 100% | residual activity [19] 100% | residual activity [20] 100% | residual activity [21] 100% | residual activity [22] 100% | residual activity [23] 100% | residual activity [24] 100% | residual activity [25] 100% | residual activity [26] 94% | residual activity [27] 93% | residual activity [28] 93% | residual activity [29] 100% | residual activity [30] 100% | residual activity [31] 96% | residual activity [32] 100% | residual activity [33] 100% | residual activity [34] 83% | residual activity [35] 89% | residual activity [36] 76% | residual activity [37] 100% | inhibition [38] 5.24% | residual activity [39] 100%

Cc1noc([C@H]2C[C@@H](c3ccc(C(F)(F)F)cc3)CN(C(=O)N3CCS(=O)(=O)C3)C2)n1 [BAY-448]
inactive: residual activity [1] 100% | residual activity [2] 100% | residual activity [3] 100% | residual activity [4] 72% | residual activity [5] 100% | residual activity [6] 100% | residual activity [7] 85% | residual activity [8] 100% | residual activity [9] 100% | inhibition [10] 27.7% | residual activity [11] 100% | residual activity [12] 100% | residual activity [13] 87% | residual activity [14] 68% | residual activity [15] 100% | residual activity [16] 73% | residual activity [17] 82% | residual activity [18] 100% | residual activity [19] 100% | residual activity [20] 100% | residual activity [21] 91% | residual activity [22] 100% | residual activity [23] 100% | residual activity [24] 100% | residual activity [25] 92% | residual activity [26] 100% | residual activity [27] 81% | residual activity [28] 100% | residual activity [29] 91% | residual activity [30] 100% | residual activity [31] 100% | residual activity [32] 100% | residual activity [33] 89% | residual activity [34] 72% | residual activity [35] 100% | residual activity [36] 100% | residual activity [37] 100% | inhibition [38] 6.3% | residual activity [39] 100%
